Test results taken from patent US11135234B2, “Effective aminoglycoside antibiotic for multidrug-resistant bacteria” (MICROBIAL CHEMISTRY RESEARCH FOUNDATION, priority 2015, dated 2021).
Converted amounts (≈) assume the structure as drawn.

What was measured:
[1] = test system: S. aureus MF490; assay: MIC, agar plate dilution method, S. aureus MF490; format: cell-based, Staphylococcus aureus; settings: for MIC: Staphylococcus aureus, MRSA, read-out: minimal inhibitory concentration (MIC); for minimal inhibitory concentration (MIC): S. aureus MF490, MRSA
Procedure, shortened: (§1)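 MIC values, expressed in μg/mL, come from an agar plate dilution assay run as the Japan Society of Chemotherapy describes.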

[2] = test system: K. pneumoniae ATCC BAA-2146; assay: MIC, agar plate dilution method, K. pneumoniae ATCC BAA-2146; format: cell-based, Klebsiella pneumoniae; settings: for MIC: Klebsiella pneumoniae, ATCCBAA2146, K. pneumoniae ATCC BAA-2146, NDM-producing strain, read-out: minimal inhibitory concentration (MIC); for minimal inhibitory concentration (MIC): K. pneumoniae ATCC BAA-2146, NDM-producing strain
Procedure, shortened: as §1

[3] = test system: E. faecium ATCC19434; assay: MIC, agar plate dilution method, E. faecium ATCC19434; format: cell-based, Enterococcus faecium; settings: for MIC: Enterococcus faecium, ATCC19434, E. faecium ATCC19434, read-out: minimal inhibitory concentration (MIC); for minimal inhibitory concentration (MIC): E. faecium ATCC19434
Procedure, shortened: as §1

[4] = test system: P. aeruginosa PAO1; assay: MIC, agar plate dilution method, P. aeruginosa PAO1; format: cell-based, Pseudomonas aeruginosa; settings: for MIC: Pseudomonas aeruginosa, PAO1, P. aeruginosa PAO1, Sensitive bacterium, read-out: minimal inhibitory concentration (MIC); for minimal inhibitory concentration (MIC): P. aeruginosa PAO1, Sensitive bacterium
Procedure, shortened: as §1

[5] = test system: P. aeruginosa PAO1/GN315; assay: MIC, agar plate dilution method, P. aeruginosa PAO1/GN315; format: cell-based, Pseudomonas aeruginosa; settings: for MIC: Pseudomonas aeruginosa, read-out: minimal inhibitory concentration (MIC), P. aeruginosa PAO1/GN315, AMK-resistant; for minimal inhibitory concentration (MIC): P. aeruginosa PAO1/GN315, AMK-resistant
Procedure, shortened: as §1

[6] = test system: S. marcescens GN6944; assay: MIC, agar plate dilution method, S. marcescens GN6944; format: cell-based, Serratia marcescens; settings: S. marcescens GN6944, GM-resistant; for MIC: Serratia marcescens, read-out: minimal inhibitory concentration (MIC)
Procedure, shortened: as §1

[7] = test system: P. aeruginosa MSC01035; assay: MIC, agar plate dilution method, P. aeruginosa MSC01035; format: cell-based, Pseudomonas aeruginosa; settings: P. aeruginosa MSC01035, ABK-resistant; for MIC: Pseudomonas aeruginosa, read-out: minimal inhibitory concentration (MIC)
Procedure, shortened: as §1

[8] = test system: E. coli JM109/pMW218; assay: MIC, agar plate dilution method, E. coli JM109/pMW218; format: cell-based, Escherichia coli; settings: for MIC: Escherichia coli, JM109/PMW218, E. coli JM109/pMW218, Sensitive bacterium, read-out: minimal inhibitory concentration (MIC); for minimal inhibitory concentration (MIC): E. coli JM109/pMW218, Sensitive bacterium
Procedure, shortened: as §1

[9] = test system: S. aureus RN4220/pMS520; assay: MIC, agar plate dilution method, S. aureus RN4220/pMS520; format: cell-based, Staphylococcus aureus; settings: for MIC: Staphylococcus aureus, MRSA, read-out: minimal inhibitory concentration (MIC), S. aureus RN4220/pMS520, MRSA; for minimal inhibitory concentration (MIC): S. aureus RN4220/pMS520, MRSA
Procedure, shortened: as §1

[10] = test system: A. baumannii ATCC BAA-1710; assay: MIC, agar plate dilution method, A. baumannii ATCC BAA-1710; format: cell-based, Acinetobacter baumannii; settings: for MIC: Acinetobacter baumannii, ATCCBAA1710, A. baumannii ATCC BAA-1710, MDRA, read-out: minimal inhibitory concentration (MIC); for minimal inhibitory concentration (MIC): A. baumannii ATCC BAA-1710, MDRA
Procedure, shortened: as §1

[11] = test system: S. aureus RN4220; assay: MIC, agar plate dilution method, S. aureus RN4220; format: cell-based, Staphylococcus aureus; settings: for MIC: Staphylococcus aureus, RN4220, S. aureus RN4220, Sensitive bacterium, read-out: minimal inhibitory concentration (MIC); for minimal inhibitory concentration (MIC): S. aureus RN4220, Sensitive bacterium
Procedure, shortened: as §1

[12] = test system: S. marcescens TH-0447; assay: MIC, agar plate dilution method, S. marcescens TH-0447; format: cell-based, Serratia marcescens; settings: for MIC: Serratia marcescens, TH0447, S. marcescens TH-0447, AMK-resistant, read-out: minimal inhibitory concentration (MIC); for minimal inhibitory concentration (MIC): S. marcescens TH-0447, AMK-resistant
Procedure, shortened: as §1

[13] = test system: P. aeruginosa MSC17707; assay: MIC, agar plate dilution method, P. aeruginosa MSC17707; format: cell-based, Pseudomonas aeruginosa; settings: for MIC: Pseudomonas aeruginosa, MSC17707, P. aeruginosa MSC17707, AMK-resistant, read-out: minimal inhibitory concentration (MIC); for minimal inhibitory concentration (MIC): P. aeruginosa MSC17707, AMK-resistant
Procedure, shortened: as §1

[14] = test system: K. pneumoniae ATCC BAA-1705; assay: MIC, agar plate dilution method, K. pneumoniae ATCC BAA-1705; format: cell-based, Klebsiella pneumoniae; settings: for MIC: Klebsiella pneumoniae, ATCCBAA1705, K. pneumoniae ATCC BAA-1705, KPC-producing strain, read-out: minimal inhibitory concentration (MIC); for minimal inhibitory concentration (MIC): K. pneumoniae ATCC BAA-1705, KPC-producing strain
Procedure, shortened: as §1

SMILES | MIC [1] | MIC [2] | MIC [3] | MIC [4] | MIC [5] | MIC [6] | MIC [7] | MIC [8] | MIC [9] | MIC [10] | MIC [11] | MIC [12] | MIC [13] | MIC [14] | minimal inhibitory concentration (MIC) [1] | minimal inhibitory concentration (MIC) [2] | minimal inhibitory concentration (MIC) [3] | minimal inhibitory concentration (MIC) [4] | minimal inhibitory concentration (MIC) [5] | minimal inhibitory concentration (MIC) [6] | other results
CNC1C(O[C@H]2OC(CO)[C@@H](NC(=N)N)[C@H](O)C2O)O[C@H]2CC(N)[C@@H](O[C@@H]3C(N)C[C@@H](N)C(O)[C@H]3O)OC2C1O (stereo partly shown) [Compound A4-j, 4″-deamino-4″-guanidinoapramycin] | 8 µg/mL (≈ 13.8 µM) | 1 µg/mL (≈ 1.72 µM) | 16 µg/mL (≈ 27.5 µM) | 4 µg/mL (≈ 6.88 µM) | 8 µg/mL (≈ 13.8 µM) | 4 µg/mL (≈ 6.88 µM) | 8 µg/mL (≈ 13.8 µM) | 1 µg/mL (≈ 1.72 µM) | 2 µg/mL (≈ 3.44 µM) | 8 µg/mL (≈ 13.8 µM) | 2 µg/mL (≈ 3.44 µM) | 8 µg/mL (≈ 13.8 µM) | 8 µg/mL (≈ 13.8 µM) | 2 µg/mL (≈ 3.44 µM) |  |  |  |  |  |  | 
CNC1C(O[C@H]2OC(CO)[C@@H](NC(=O)[C@@H](O)CN)[C@H](O)C2O)O[C@H]2C[C@H](N)[C@@H](O[C@@H]3C(N)C[C@@H](N)C[C@H]3O)OC2C1O (stereo partly drawn) [Compound V1-r, 6-deoxy-5-epi-4″-N-(L-isoseryl)apramycin] | 4 µg/mL (≈ 6.55 µM) | 1 µg/mL (≈ 1.64 µM) | 8 µg/mL (≈ 13.1 µM) | 2 µg/mL (≈ 3.28 µM) | 2 µg/mL (≈ 3.28 µM) | 8 µg/mL (≈ 13.1 µM) | 4 µg/mL (≈ 6.55 µM) | 0.5 µg/mL (≈ 0.819 µM) | 1 µg/mL (≈ 1.64 µM) | 4 µg/mL (≈ 6.55 µM) | 1 µg/mL (≈ 1.64 µM) | 8 µg/mL (≈ 13.1 µM) | 2 µg/mL (≈ 3.28 µM) | 1 µg/mL (≈ 1.64 µM) |  |  |  |  |  |  | 
CN[C@@H]1[C@@H](O[C@H]2O[C@H](CO)[C@@H](N)C[C@H]2O)O[C@H]2C[C@@H](N)[C@@H](O[C@H]3C[C@@H](O)[C@H](N)C[C@@H]3N)O[C@@H]2[C@@H]1O [Compound M7, 5,3″-dideoxyapramycin] |  |  |  |  |  |  |  |  |  |  |  |  |  |  | 4 µg/mL (≈ 7.88 µM) | 1 µg/mL (≈ 1.97 µM) | 16 µg/mL (≈ 31.5 µM) | 4 µg/mL (≈ 7.88 µM) | 4 µg/mL (≈ 7.88 µM) | 4 µg/mL (≈ 7.88 µM) | minimal inhibitory concentration (MIC) [7]: 4 µg/mL (≈ 7.88 µM); minimal inhibitory concentration (MIC) [8]: 0.5 µg/mL (≈ 0.985 µM); minimal inhibitory concentration (MIC) [9]: 1 µg/mL (≈ 1.97 µM); minimal inhibitory concentration (MIC) [10]: 8 µg/mL (≈ 15.8 µM); minimal inhibitory concentration (MIC) [11]: 2 µg/mL (≈ 3.94 µM); minimal inhibitory concentration (MIC) [12]: 8 µg/mL (≈ 15.8 µM); minimal inhibitory concentration (MIC) [13]: 4 µg/mL (≈ 7.88 µM); minimal inhibitory concentration (MIC) [14]: 1 µg/mL (≈ 1.97 µM)
CN[C@@H]1[C@@H](O[C@H]2O[C@H](CO)[C@@H](N)[C@H](O)[C@H]2O)O[C@H]2C[C@@H](N)[C@@H](O[C@H]3[C@@H](F)[C@H](N)[C@H](N)C[C@@H]3N)O[C@@H]2[C@@H]1O [Compound F3, 6-amino-5,6-dideoxy-5,6-diepi-5-fluoroapramycin] |  |  |  |  |  |  |  |  |  |  |  |  |  |  | 32 µg/mL (≈ 59.2 µM) | 4 µg/mL (≈ 7.4 µM) | 64 µg/mL (≈ 118 µM) | 16 µg/mL (≈ 29.6 µM) | 16 µg/mL (≈ 29.6 µM) | 16 µg/mL (≈ 29.6 µM) | minimal inhibitory concentration (MIC) [7]: 32 µg/mL (≈ 59.2 µM); minimal inhibitory concentration (MIC) [8]: 8 µg/mL (≈ 14.8 µM); minimal inhibitory concentration (MIC) [9]: 8 µg/mL (≈ 14.8 µM); minimal inhibitory concentration (MIC) [10]: 16 µg/mL (≈ 29.6 µM); minimal inhibitory concentration (MIC) [11]: 8 µg/mL (≈ 14.8 µM); minimal inhibitory concentration (MIC) [12]: 16 µg/mL (≈ 29.6 µM); minimal inhibitory concentration (MIC) [13]: 16 µg/mL (≈ 29.6 µM); minimal inhibitory concentration (MIC) [14]: 4 µg/mL (≈ 7.4 µM)
CNC1C(OC2OC(CO)C(NC(=O)C(N)CO)C(O)C2O)OC2CC(N)C(OC3C(N)CC(N)C(O)C3O)OC2C1O [Compound V1-l, 5-epi-4″-N-(L-seryl)apramycin] |  |  |  |  |  |  |  |  |  |  |  |  |  |  | 8 µg/mL (≈ 12.8 µM) | 1 µg/mL (≈ 1.6 µM) | 32 µg/mL (≈ 51.1 µM) | 4 µg/mL (≈ 6.38 µM) | 4 µg/mL (≈ 6.38 µM) | 8 µg/mL (≈ 12.8 µM) | minimal inhibitory concentration (MIC) [7]: 8 µg/mL (≈ 12.8 µM); minimal inhibitory concentration (MIC) [8]: 1 µg/mL (≈ 1.6 µM); minimal inhibitory concentration (MIC) [9]: 4 µg/mL (≈ 6.38 µM); minimal inhibitory concentration (MIC) [10]: 8 µg/mL (≈ 12.8 µM); minimal inhibitory concentration (MIC) [11]: 4 µg/mL (≈ 6.38 µM); minimal inhibitory concentration (MIC) [12]: 8 µg/mL (≈ 12.8 µM); minimal inhibitory concentration (MIC) [13]: 4 µg/mL (≈ 6.38 µM); minimal inhibitory concentration (MIC) [14]: 1 µg/mL (≈ 1.6 µM)
CNC1C(O[C@H]2OC(CO)[C@@H](NCCN)[C@H](O)C2O)O[C@H]2CC(N)[C@@H](O[C@H]3CC(O)[C@H](N)CC3N)OC2C1O (stereo partly shown) [Compound S1-b, 4″-N-(2-aminoethyl)-5-deoxyapramycin] | 4 µg/mL (≈ 7.06 µM) | 1 µg/mL (≈ 1.76 µM) | 8 µg/mL (≈ 14.1 µM) | 4 µg/mL (≈ 7.06 µM) | 4 µg/mL (≈ 7.06 µM) | 4 µg/mL (≈ 7.06 µM) | 4 µg/mL (≈ 7.06 µM) | 0.5 µg/mL (≈ 0.882 µM) | 1 µg/mL (≈ 1.76 µM) | 4 µg/mL (≈ 7.06 µM) | 2 µg/mL (≈ 3.53 µM) | 8 µg/mL (≈ 14.1 µM) | 4 µg/mL (≈ 7.06 µM) | 1 µg/mL (≈ 1.76 µM) |  |  |  |  |  |  | 
CNC1C(O[C@H]2OC(CO)[C@@H](NC(=O)[C@@H](N)CO)[C@H](O)C2O)O[C@H]2CC(N)[C@@H](O[C@@H]3C(N)C[C@@H](N)C(O)[C@H]3O)OC2C1O (stereo partly drawn) [Compound V1-e, 4″-N-(L-seryl)apramycin] | 32 µg/mL (≈ 51.1 µM) | 2 µg/mL (≈ 3.19 µM) | 64 µg/mL (≈ 102 µM) | 8 µg/mL (≈ 12.8 µM) | 8 µg/mL (≈ 12.8 µM) | 8 µg/mL (≈ 12.8 µM) | 8 µg/mL (≈ 12.8 µM) | 2 µg/mL (≈ 3.19 µM) | 8 µg/mL (≈ 12.8 µM) | 16 µg/mL (≈ 25.5 µM) | 8 µg/mL (≈ 12.8 µM) | 16 µg/mL (≈ 25.5 µM) | 8 µg/mL (≈ 12.8 µM) | 4 µg/mL (≈ 6.38 µM) |  |  |  |  |  |  | 
CNC1C(O[C@H]2OC(CO)[C@@H](NCCCN)[C@H](O)C2O)O[C@H]2CC(N)[C@@H](O[C@H]3CC[C@H](N)CC3N)OC2C1O (stereo partly shown) [Compound T2-c, 4″-N-(3-aminopropyl)-5,6-dideoxyapramycin] | 8 µg/mL (≈ 14.2 µM) | 1 µg/mL (≈ 1.77 µM) | 8 µg/mL (≈ 14.2 µM) | 4 µg/mL (≈ 7.08 µM) | 4 µg/mL (≈ 7.08 µM) | 4 µg/mL (≈ 7.08 µM) | 8 µg/mL (≈ 14.2 µM) | 1 µg/mL (≈ 1.77 µM) | 2 µg/mL (≈ 3.54 µM) | 4 µg/mL (≈ 7.08 µM) | 2 µg/mL (≈ 3.54 µM) | 8 µg/mL (≈ 14.2 µM) | 4 µg/mL (≈ 7.08 µM) | 1 µg/mL (≈ 1.77 µM) |  |  |  |  |  |  | 
